In BindingDB's records for doi:10.1016/j.bmc.2008.01.035 (Anhui University of Technology, 2008):

What follows are molecules tested against DNA gyrase subunit A/B (Staphylococcus aureus, UniProt P0A0K8+P20831) (assay: Inhibition of Staphylococcus aureus DNA gyrase supercoiling activity).

| SMILES | IC50 |
| --- | --- |
| CCC(=O)O/N=C(/C)N1N=C(C)CC1c1ccccc1OCc1ccc(F)cc1 (stereo not drawn) | > 314 µM |
| CC1=NN(/C(C)=N\OC(=O)c2cccnc2)C(c2ccc(OCc3ccc(F)cc3)cc2)C1 (stereo not drawn) | 7.83 µM |
| COC1CC(c2ccccc2)=NN1/C(C)=N\OC(=O)c1ccco1 (stereo not drawn) | 12.2 µM |
| COC1CC(c2ccccc2)=NN1/C(C)=N\OC(=O)c1ccc(C(F)(F)F)cc1 (stereo not drawn) | 0.308 µM |
| CC1=NN2C(C1)c1ccccc1CC2(C)C (stereo not drawn) | 1.16 µM |

The next lines start with the values.

| IC50 | SMILES |
| --- | --- |
| 0.271 µM | C/C(=N/OC(=O)c1ccco1)N1N=C(c2ccc(Cl)cc2Cl)CC1c1ccccc1F (stereo not drawn) |
| 1.18 µM | C=CC(=O)O/N=C(/C)N1N=C(c2ccc(Cl)cc2Cl)CC1c1ccccc1F (stereo not drawn) |
| 0.979 µM | C/C(=N/OC(=O)c1ccco1)N1N=C(c2ccc(Cl)cc2Cl)CC1c1ccc(C(F)(F)F)cc1 (stereo not drawn) |
